Legend:
[1] = system: propionate production in the rumen; conditions: oral administration to ruminants, Raun patents; cited from earlier work
rumen fluid = test: In vitro rumen fluid incubation (18 h): volatile fatty acids and methane inhibition; type: cell-based, sheep; conditions: 39° C.; for C2 (acetate), Ratio Treated to Control / C3 (propionate), Ratio Treated to Control / C4 (butyrate), Ratio Treated to Control / Total VFA, Ratio Treated to Control: 50.0 ppm, pH 7.0; for inhibition at 50 ppm: Ovis aries, vs negative control
Experimental: Below is set forth the procedure followed for testing the compounds of the present invention in vitro. For these studies, rumen fistulated sheep were fed a concentrate diet which constituted 3 parts chopped corn and cob and 1 part alfalfa pellets.
1. Rumen fluid was removed from a fistulated sheep and strained through 4 layers of cheese cloth to remove large feed particles.
2. One part rumen fluid was added to 3 parts of modified McDougal's Artificial Saliva, the pH was adjusted to 7.0 and the saliva solution was prewarmed to 39° C. in a water bath and gassed with CO2.
(a) Modified McDougal Artificial Saliva composition:
To prepare (a), (i) 9.8 g NaHCO3, 11.7 g KHCO3, 5.1 g NaH2 PO4 and 4.08 g KH2 PO4 were diluted with two (2) liters of distilled H2 O; (ii) 20 mL of 100X salt solution was diluted to 1.33 l with tap H2 O; and (iii) mix (i) with (ii) to prepare the modified McDougal Artificial Saliva.
3. Add 0.01 g concentrate feed/1 mL of buffered rumen fluid (the buffered rumen fluid with concentrate should be stirred at all times to prevent the concentrate from settling).
4. Dispense 20 mL of buffered rumen fluid into 30 mL serum bottles that are being gassed with CO2. (A manifold that gases 12 bottles at a time was used.) The bottles should be in a 39° C. H2 O bath.
5. The test compounds, i.e., the compounds of the present invention, were first added to the bottles. After the addition of the buffered rumen fluid to all 12 bottles, the gassing cannulae were quickly removed and a butyl rubber stopper was inserted in each bottle. An aluminum seal was then placed on each bottle and crimped tight.
6. The sealed bottles were removed from the water bath, shaken and placed in a 39° C. incubator for 18 hours.
7. After the 18-hour incubation, the bottles were removed from the incubator and the head space gas was analyzed using a gas partitioner.
8. Four mL of rumen fluid was removed from each bottle for volatile fatty acid (VFA) analysis.
(a) The 4 mL sample was added to a centrifuge tube to which had previously been added 0.04 mL of 50 percent H2 SO4 and 1 mL 2-ethylbutyric acid (concentration 2 mL of 2-ethylbutyric acid/500 mL H2 O v/v).
(b) The mixture from (a) was centrifuged at 10000 xg for 20 minutes.
(c) The supernatant was removed and analyzed by gas-liquid chromatography. The above procedures were followed in all trials for testing the compounds of the present invention.

rumen = test: In vivo rumen VFA trial in rumen fistulated sheep (90 days); conditions: 90 day trial average
Text: Eight rumen fistulated sheep were used as test animals. Two sheep were alotted to each of three treatments and a control for each test. Group I was always the control group in each of the different trials. Groups II through IV had varying concentrations of compounds of the present invention added to the animals' feed. The feed ration in each trial constituted 3 parts chopped corn and cob and 1 part alfalfa pellets. Each sheep was offered 800 g daily of the feed in two equal portions. The particular compound and vitamin premix were mixed with chopped corn and cob. Any feed refusals were weighed back before each feeding and discarded. To prevent any mold growth, the feed was stored under refrigeration.
All animals in the various treatment groups were sampled for VFA's twice a week. Equal volumes of rumen fluid from each animal within a treatment were pooled for treatment VFA analysis. Fluid from individual animals was also analyzed for VFA. Individual animal VFA's within a treatment were averaged. This value was then averaged with pooled treatment VFA yielding the final treatment VFA value. All ratios and statistics were calculated using this final value. VFA's were calculated as the ratio treated to its respective pretreatment value. Each of the trials lasted for 90 days.

[2] = Table II, Group II, level 0.01 % of feed
[3] = Table II, Group III, level 0.05 % of feed (approx. 60 ppm in rumen)
[4] = Table II, Group IV, level 0.025 % of feed
[5] = Table III, Group II, level 0.05 % of feed (approx. 60 ppm in rumen)
[6] = Table III, Group III, level 0.075 % of feed
[7] = Table III, Group IV, level 0.025 % of feed

| SMILES | propionate production (in words) [1] | C2 (acetate), Ratio Treated to Control (rumen fluid) | C3 (propionate), Ratio Treated to Control (rumen fluid) | C4 (butyrate), Ratio Treated to Control (rumen fluid) | Total VFA, Ratio Treated to Control (rumen fluid) | inhibition at 50 ppm (rumen fluid) | further results |
| --- | --- | --- | --- | --- | --- | --- | --- |
| C=C(NC(=O)C(=C)NC(=O)c1csc(C2=N[C@@H]3c4csc(n4)[C@H]4NC(=O)c5csc(n5)[C@H]([C@](C)(O)[C@@H](C)O)NC(=O)[C@H]5CSC(=N5)/C(=C/C)NC(=O)[C@H]([C@@H](C)O)NC(=O)c5csc(n5)[C@]3(CC2)NC(=O)[C@H](C)NC(=O)C(=C)NC(=O)[C@H](C)NC(=O)[C@H]([C@@H](C)CC)N[C@@H]2C=Cc3c([C@H](C)O)cc(nc3[C@H]2O)C(=O)O[C@@H]4C)n1)C(N)=O [thiostrepton] | propionate production could be increased |  |  |  |  |  |  |
| ClCc1nnn[nH]1 [TCH2 Cl, 5-Chloromethyltetrazole] |  | 0.74 | 1.49 | 0.95 | 0.96 | 96.8% | C2 (acetate), Ratio of Treatment VFA to Pretreatment VFA (rumen; [2]): 1.01; C3 (propionate), Ratio of Treatment VFA to Pretreatment VFA (rumen; [2]): 0.98; C4 (butyrate), Ratio of Treatment VFA to Pretreatment VFA (rumen; [2]): 1.02; Total VFA, Ratio of Treatment VFA to Pretreatment VFA (rumen; [2]): 0.96; C2 (acetate), Ratio of Treatment VFA to Pretreatment VFA (rumen; [3]): 0.97; C3 (propionate), Ratio of Treatment VFA to Pretreatment VFA (rumen; [3]): 1.05; C4 (butyrate), Ratio of Treatment VFA to Pretreatment VFA (rumen; [3]): 1.04; Total VFA, Ratio of Treatment VFA to Pretreatment VFA (rumen; [3]): 0.88; C2 (acetate), Ratio of Treatment VFA to Pretreatment VFA (rumen; [4]): 0.96; C3 (propionate), Ratio of Treatment VFA to Pretreatment VFA (rumen; [4]): 1.10; C4 (butyrate), Ratio of Treatment VFA to Pretreatment VFA (rumen; [4]): 1.05; Total VFA, Ratio of Treatment VFA to Pretreatment VFA (rumen; [4]): 0.93 |
| BrCCc1nnn[nH]1 [TCH2 CH2 Br] |  | 0.73 | 1.44 | 1.25 | 0.91 | 91.3% |  |
| CO[C@H]1CC[C@@H](O[C@H]2C[C@H]([C@]3(C)CC[C@]4(C[C@H](O)[C@@H](C)[C@@H]([C@@H](C)/C=C(\C)C(=O)[C@H](C)C[C@H](C)C(=O)O)O4)O3)O[C@]3(O[C@@H]([C@H]4O[C@@](O)(CO)[C@H](C)C[C@@H]4C)C[C@@H]3C)[C@@H]2C)O[C@@H]1C [dianemycin] | propionate production could be increased |  |  |  |  |  |  |
| ClCCc1nnn[nH]1 [TCH2 CH2 Cl, 5-(2-Chloroethyl)Tetrazole] |  | 0.76 | 1.48 | 0.92 | 1.03 | 74.6% | C2 (acetate), Ratio of Treatment VFA to Pretreatment VFA (rumen; [5]): 0.97; C3 (propionate), Ratio of Treatment VFA to Pretreatment VFA (rumen; [5]): 1.06; C4 (butyrate), Ratio of Treatment VFA to Pretreatment VFA (rumen; [5]): 1.11; Total VFA, Ratio of Treatment VFA to Pretreatment VFA (rumen; [5]): 0.88; C2 (acetate), Ratio of Treatment VFA to Pretreatment VFA (rumen; [6]): 0.92; C3 (propionate), Ratio of Treatment VFA to Pretreatment VFA (rumen; [6]): 1.24; C4 (butyrate), Ratio of Treatment VFA to Pretreatment VFA (rumen; [6]): 1.05; Total VFA, Ratio of Treatment VFA to Pretreatment VFA (rumen; [6]): 0.89; C2 (acetate), Ratio of Treatment VFA to Pretreatment VFA (rumen; [7]): 0.97; C3 (propionate), Ratio of Treatment VFA to Pretreatment VFA (rumen; [7]): 1.00; C4 (butyrate), Ratio of Treatment VFA to Pretreatment VFA (rumen; [7]): 1.20; Total VFA, Ratio of Treatment VFA to Pretreatment VFA (rumen; [7]): 1.05 |
| CS(=O)(=O)NCCc1nnn[nH]1 [TCH2 CH2 NHSO2 CH3] |  | 0.99 | 1.04 | 0.99 | 1.02 | 0.7% |  |
| O=C(CCl)NCCc1nnn[nH]1 |  | 0.91 | 1.16 | 1.05 | 1.02 | 4.9% |  |
| CC[C@@]1([C@@H]2O[C@@H]([C@H]3O[C@@](O)(CO)[C@H](C)C[C@@H]3C)C[C@@H]2C)CC[C@H]([C@]2(C)CC[C@]3(C[C@H](O)[C@@H](C)[C@@H]([C@@H](C)[C@@H](OC)[C@H](C)C(=O)O)O3)O2)O1 [monensin] | propionate production could be increased |  |  |  |  |  |  |
| CS(=O)(=O)NCCC#N [CNCH2 CH2 NHSO2 CH3] |  | 0.7 | 1.58 | 1.13 | 0.97 | 73.4% |  |
| Cc1ccc(S(=O)(=O)OCCc2nnn[nH]2)cc1 |  | 0.92 | 1.23 | 0.95 | 1.07 | 8% |  |

Source: patent US4461772A, “Additives for improving ruminant feed utilization” (SDS Biotech Corporation, priority 1983, dated 1984)
